Test results reported in patent US20060204460A1, “Lip gloss composition” (KOKYU ALCOHOL KOGYO CO., LTD., priority 2005, published 2006).

Test: Viscosity of liquid oil (E) on a Brookfield viscometer
Format: physicochemical
Settings: at 25 degrees C., No. 2 spindle, 12 rpm
Protocol: The liquid oil having a viscosity of from 5 to 400 mPa·s at 25 degrees C., (E), is known and commonly used in cosmetics. The viscosity of the liquid oil at 25 degrees C. is preferably 8 to 350 mPa·s, and more preferably 12 to 300 mPa·s. […] The viscosity is measured on a Brookfield viscometer using No. 2 spindle at 12 rpm.

Molecule | Viscosity
CC(C)CCCCCCCCCCCCCCC(=O)OC(C)C [isopropyl isostearate] | 10 mPa·s
CCCCCCCCCCCCCCCC(=O)OC(C)C [isopropyl palmitate] | 7 mPa·s
CC(C)CCCCCCCCCCCCCCCOC(=O)CCCCCCCCCCCCCCC(C)C [isostearyl isostearate] | 40 mPa·s
CC(C)CCCCCCCCCCCCCCCOC(=O)C(C)(C)C [isostearyl neopentanoate] | 15 mPa·s
CCCCCCCCCC(=O)OCC(C)(C)COC(=O)CCCCCCCCC [neopentylglycol dicaprate] | 19 mPa·s
CCCCC(CC)C(=O)OCC(C)(C)COC(=O)C(CC)CCCC (stereo not drawn) [neopentylglycol diethylhexanoate] | 13 mPa·s
CCCCC(CC)C(=O)OCC(COC(=O)C(CC)CCCC)(COC(=O)C(CC)CCCC)COC(=O)C(CC)CCCC (stereo not drawn) [pentaerythrityl tetraethylhexanoate] | 110 mPa·s
CCCCC(CC)C(=O)OCC(COC(=O)C(CC)CCCC)OC(=O)C(CC)CCCC (stereo not drawn) [triethyl hexanoin] | 35 mPa·s
diisopropyl dilinoleate | 310 mPa·s
hexyldecyl ethylhexanoate | 11 mPa·s
isononyl ethylhexanoate | 5 mPa·s
octyldodecyl neodecanoate | 25 mPa·s
trimethylolpropane triethylhexanoate | 52 mPa·s
trimethylolpropane triisostearate | 180 mPa·s

Other lines, results leading:

Viscosity | Molecule
13 mPa·s | CCCCCCCCCCCCCCCCOC(=O)C(CC)CCCC (stereo not drawn) [cetyl ethylhexanoate]
6 mPa·s | CC(C)CCCCCCOC(=O)CCCCCC(C)C [isononyl isononanoate]
12 mPa·s | CC(C)CCCCCCCCCCOC(=O)CCCCCC(C)C [isotridecyl isononanoate]
32 mPa·s | CC(C)CCCC(C)CCCC(C)CCCCC(C)CCCC(C)CCCC(C)C (stereo not drawn) [squalane]
64 mPa·s | ethylhexyl hydroxystearate
34 mPa·s | hexyldecyl isostearate
15 mPa·s | octyldodecyl neopentanoate
90 mPa·s | octyldodecyl stearoyloxystearate
290 mPa·s | pentaerythrityl tetraisostearate
185 mPa·s | triisostearine
